Source: patent US5821251A, “Nitrogen heterocycles” (John Wyeth & Brother Limited, priority 1994, dated 1998)

Columns and labels:
[1] = system: transient outward potassium current (TOC) in GH3 rat pituitary cell line; test: Procedure 2: blocking transient outward potassium currents (TOC) in the GH3 rat pituitary cell line; type: cell-based; details: GH3 cells; for % Block of TOC, PROCEDURE 2 GH3 %: 100 μM
Procedure: The compounds were also tested for blocking transient outward potassium currents (TOC) in the GH3 rat pituitary cell line according to the procedure below:
GH3 cells were obtained from either Flow Laboratories or European Centre for Animal Cell Cultures (Porton Down), and maintained in tissue culture using standard procedures and media for this cell line. Cells were plated on 35 mm plastic dishes and used subsequently for electophysiology with 1 to 10 days.
Currents were recorded using the whole-cell voltage clamp configuration of the patch clamp technique, using an Axopatch 1C amplifier (Axon Instruments). Patch electrodes were manufactured from aluminosilicate glass tubing (Clark Electomedical SM150F-10) and heat polished prior to use. Resistance was 1-5 M.OMEGA.. No electrode coating was necessary for whole-cell recording. Signal acquisition and analysis was performed using pClamp software (Axon Instruments). A p-on-4 subtraction procedure was used to remove leak and capacitative currents on line. A holding potential of -100 mV was routinely used: this avoided accumulation of slow voltage-dependent inactivation.
Two main protocols were used in testing drugs. 1) Current-voltage (I-V) curves were collected, with incrementing steps of either 10 or 20 mV. Full I-V curves were obtained both in control and drug solutions. 2) a `pharmacology` program, which involved single voltage steps fromm -100 to +60 mV, applied and collected at 20 s intervals. Compounds under investigation were applied via a `U` tube rapid application system to a small area of the recording chamber. Drug applications were always bracketed by control solutions to ensure reversibility. The recording chamber was continously perfused at 1-5 ml.min^-1. Results are expressed at % of control peak current (step form -100 to +60 mV). However, where drugs have a time dependent effect on TOC, i.e acceleration of TOC decay, results are also expressed as a % of total charge transferred within a defined period of the voltage step from -100 to +60 mV.
The standard extracellular solution contained (in mM): NaCl 135 (or choline or TRIS chloride); KCl 5; MgCl2 4; EGTA 1; TEACl 10; HEPES 10; glucose 25; pH set to 7.4 with NaOH. TTX was usually at 100-200 nM.
The intracellular (pipette) solution was comprised of (in mM): K aspartate 120; KCl 20; MgCl2 1; cAMP 1; MgATP 2; EGTA 10; HEPES 10; pH 7.4 with KOH. Other intracellular substrates were often used without noticeable effect. This solution was stored in 1 ml aliquots at -4° C., and filtered at 0.2 μm.
These recording solutions precluded activation of voltage dependent Na, Ca, delayed rectifier and Ca-activated K currents. The resulting whole-cell currents chiefly comprised the transient outward potassium current, switching on with third power kinetics reaching peak amplitudes of ~1 nA at +60 mV, and a double exponential decay (time constants of ~30 and 160 ms at +60 mV). There is no significant change in current amplitude within the normal recording period, which may extend for up to 90 min. One dish of cells usually lasts several hours.
The standard compound 4-aminopyridine is a block @ 1-5 mM. (80% block at 5 mM).

[2] = system: voltage gated potassium channels (transient outward current, TOC) in dorsal root ganglion (DRG) cells; test: Procedure 1: modulation of voltage-activated K^+ currents in dorsal root ganglion (DRG) cells, block of TOC; type: cell-based
From the text: They may therefore by used to treat CNS disorders as described above such as depression, pain psychoses, anxiety, movement disorders (such as Parkinson's disease) and multiple sclerosis and in enhancing cognition, memory and learning.
Procedure 1 Modulation of voltage-activated K^+ currents in dorsal root ganglion (DRG) cells:
The method used in the culture or dorsal root ganglion cells is similar to that described by Wood et. al., Capsaicin induced ion fluxes in dorsal root ganglion cells in culture, J. Neuroscience, 8, 3208-3220) (1988). Dorsal root ganglia are dissected mainly from around the lumbar and thoracic vertebrae and placed in a conical centrifuge tube containing Ham's F14 nutrient mixture (F14:Imperial Laboratories) plus horse serum (HS: GIBCO or Flow). When all ganglia have been collected (ex ca. 14 pups) the excess medium is removed and the ganglia incubated for 30 min in "F14+HS" containing 0.1% collagenase Type 1A-S (Sigma). Excess medium is removed, ganglia washed in 4 ml F14 (no HS), resuspended and spun down at 900 g for 10 s. The supernatant is again removed and replaced with 1.8 ml F14 (no HS) plus 0.2 ml trypsin (GIBCO) at a final concentration of 0.25%. The ganglia are then incubated at 37° C. for 30 min agitating every 10 min to prevent clumping. The trypsinisation is inhibited by the addition of 6 ml "F14+HS" and cells are resuspended and centrifuged as before. The medium is removed and 2 ml added of "F14+HS" containing 0.4% DNAase 1 (Sigma). The ganglia are then triturated gently 15-20× using a siliconised pasteur pipette, filtered through a […] nylon mesh filter and collected into a centrifuge tube. The filter is further washed with 2 ml of "F14+HS" which is collected into the same tube. The suspension is spun at 900 g for 3 min, the supernatant removed and the cells resuspended in DRG Growth Medium (DRG-GM) which consists of: HAMS F14 nutrient mixture (40%, v/v), HS(10%, v/v) C6 conditioned medium (50%, v/v), penicillin/streptomycin (100 U/ml; 100 μg/ml) and NGF (30 μg/ml). Cells are then plated out onto five 60 mm poly-L-lysine-coated tissue culture petri dishes (see below).
After a few days in culture (3-7 days, usually), cells are resuspended from 60 mm dishes using a 0.25% solution of trypsin in F14. An equal volume of DRG-GM is added to inhibit the trypsin, the cells are spun at 900 g for 5 minutes and resuspended in 0.25-0.5 ml of DRG-GM. Neurites are removed by gentle trituration through a 21 g syringe needle (15-20 strokes) and a drop of the cell suspension is then placed on each of 5-6 poly-D-lysine- and laminin-coated 35 mm petri dishes (see below). After 30 minutes incubation at 37° C., each plate is flooded with ca 1.5 ml DRG-GM and after about 1 hour incubation, cells are ready for electrophysiological recording. This final step is carried out specifically in order to remove neurites which hinder good voltage-clamp of the cells.
2 ml of poly-D-lysine (Sigma), reconstituted in distilled water to 100 μg/ml, are added to each plate and left for 1-2 hours. Plates are then washed with water and left to dry. Laminin (5 μg/ml) is added as a drop to the centre of plates (previously coated with poly-D-Lys), left for 45 min before removal of excess and use of plates.
Recordings are made using an AxoClamp-2A (Axon Instruments Inc) switiching clamp amplifier using patch electrodes (4-8 Mohms), made from borosilicate glass capillary tubes (GC150TF-10, Clark Electromedical) and fire-polished. Electrodes are filled with (in mM): 140 K Gluconate, 2 MgCl2, 1.1 EGTA/KOH, 5 HEPES, 20 sucrose, 2 MgATP, 0.2 GTP; pH set to 7.2 with KOH and osmolarity adjusted with sucrose to 310 mOsm. The electrodes are then and dipped in Sigmacote (Sigma) prior to recording to reduce stray capacitance. […]

Compound	% Block of TOC, PROCEDURE 2 GH3 % [1]	% Block of TOC, PROCEDURE 1 DRG % ([2]; 10 μM)	further results
COc1ccc(C[C@H]2CC[C@@H]3NC[C@H](CO)C[C@H]3C2)cc1 (relative stereo) [Example 3, (±)-(3RS,4aRS,6SR,8aSR)-1,2,3,4,4,a,5,6,7,8,8a-Decahydro-3-hydroxymethyl-6-((4-methoxyphenyl)methyl)quinoline]	68%	32%	
COc1ccc(C[C@@H]2CC[C@H]3NC[C@H](CO)C[C@@H]3C2)cc1 (racemic) [Example 2, (±)-(3RS,4aSR,6RS,8aRS)-1,2,3,4,4a,5,6,7,8,8a-Decahydro-3-hydroxymethyl-6-((4-methoxyphenyl)methyl)quinoline]	31%		
COc1ccc(C[C@@H]2CC[C@H]3NC[C@H](CO)C[C@@H]3C2)cc1 [Example 6, (+)-(3R,4aS,6R,8aR)-1,2,3,4,4a,5,6,7,8,8a-Decahydro-3-hydroxymethyl-6-((4-methoxyphenyl)methyl)quinoline]		29%	
COc1ccc(C[C@H]2CC[C@H]3NCCC[C@H]3C2)cc1 [Example 9, (-)-(4aS,6S,8aR)-3,4,4a,5,6,7,8,8a-Decahydro-6-((4-methoxyphenyl)methyl)quinoline]		28%	
COc1ccc(C[C@H]2CC[C@@H]3[C@@H](CCCN3[C@H](C)c3ccccc3)C2)cc1 [Example 8, (+)-(1'R,4aS,6S,8aR)-1,2,3,4,4a,5,6,7,8,8a-Decahydro-6-((4-methoxyphenyl)methyl)-1-(1'-phenylethyl)quinoline]		49%	
COc1ccc(C[C@H]2CC[C@H]3NC[C@H](CO)C[C@H]3C2)cc1 (racemic) [Example 4, (±)-(3RS,4aRS,6SR,8aRS)-1,2,3,4,4a,5,6,7,8,8a-Decahydro-3-hydroxymethyl-6-((4-methoxyphenyl)methyl)quinoline]	56%		% Block of TOC, PROCEDURE 1 DRG % ([2]; 100 μM): 60%
COc1ccc(CC2CCC3NCC(CO)CC3C2)cc1 (stereo not drawn) [Example 1, 1,2,3,4,4a,5,6,7,8,8a-Decahydro-3-hydroxymethyl-6-((4-methoxyphenyl)methyl)quinoline]	55%		
Nc1ccncc1 [4-aminopyridine, reference compound]			block (standard compound), in words ([1]; @ 1-5 mM): block; block (standard compound) ([1]; at 5 mM): 80%; block of TOC (standard compound) ([2]; at 1 mM): 100%
